According to patent US20170190671A1, “BIS(ARYL)CATECHOL DERIVATIVES AS HERBICIDES” (E I DU PONT DE NEMOURS AND COMPANY, priority 2014, published 2017):

What was measured:
Assay type in all cases: in vivo
[1] = tested on: morningglory (Ipomoea coccinea); assay: Test C preemergence; conditions: Ipomoea, pre-emergence, 336 h, preemergence, scale 0 to 100, read-out: Plant response rating, Morningglory
Outline: (§1)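 Greenhouse test; preemergence to seeds in loam/sand soil, or postemergence spray to 2-18 cm, 1- to 4-leaf plants in peat/vermiculite medium; compound in non-phytotoxic solvent plus surfactant. Visual rating vs controls at 13-15 d, 0 = no effect, 100 = complete control.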

[2] = tested on: pigweed (Amaranthus retroflexus); assay: Test C preemergence; conditions: Amaranthus retroflexus, pre-emergence, 336 h, preemergence, scale 0 to 100, read-out: Plant response rating, Pigweed
Outline: as §1

[3] = tested on: johnsongrass (Sorghum halepense); assay: Test C preemergence; conditions: Sorghum halepense, pre-emergence, 336 h, preemergence, scale 0 to 100, read-out: Plant response rating, Johnsongrass
Outline: as §1

[4] = tested on: waterhemp (common waterhemp, Amaranthus rudis); assay: Test C postemergence; conditions: Amaranthus tuberculatus, post-emergence, Postemergence, scale 0 to 100, read-out: Plant response rating, Waterhemp
Outline: as §1

[5] = tested on: morningglory (Ipomoea coccinea); assay: Test C postemergence; conditions: Ipomoea, post-emergence, 336 h, Postemergence, scale 0 to 100, read-out: Plant response rating, Morningglory
Outline: as §1

[6] = tested on: barnyardgrass (Echinochloa crus-galli); assay: Test C postemergence; conditions: Echinochloa crus-galli, post-emergence, Postemergence, scale 0 to 100, read-out: Plant response rating, Barnyardgrass
Outline: as §1

[7] = tested on: oilseed rape (Brassica napus); assay: Test C postemergence; conditions: Brassica napus, post-emergence, Postemergence, scale 0 to 100, read-out: Plant response rating, Oilseed Rape
Outline: as §1

[8] = tested on: velvetleaf (Abutilon theophrasti); assay: Test C postemergence; conditions: Abutilon theophrasti, post-emergence, Postemergence, scale 0 to 100, read-out: Plant response rating, Velvetleaf
Outline: as §1

[9] = tested on: pigweed (Amaranthus retroflexus); assay: Test C postemergence; conditions: Amaranthus retroflexus, post-emergence, 336 h, Postemergence, scale 0 to 100, read-out: Plant response rating, Pigweed
Outline: as §1

[10] = tested on: ragweed (common ragweed, Ambrosia elatior); assay: Test C postemergence; conditions: Ambrosia artemisiifolia, post-emergence, 336 h, Postemergence, scale 0 to 100, read-out: Plant response rating, Ragweed
Outline: as §1

[11] = tested on: galium (catchweed bedstraw, Galium aparine); assay: Test C postemergence; conditions: Galium, post-emergence, 336 h, Postemergence, scale 0 to 100, read-out: Plant response rating, Galium
Outline: as §1

kochia (Kochia scoparia) = assay: Test C postemergence; conditions: Bassia scoparia, post-emergence, Postemergence, scale 0 to 100, read-out: Plant response rating, Kochia
Outline: as §1

corn (Zea mays) = assay: Test C postemergence; conditions: Zea mays, post-emergence, 336 h, Postemergence, scale 0 to 100
Outline: as §1

[12] = tested on: large (Lg) crabgrass (Digitaria sanguinalis); assay: Test C postemergence; conditions: Digitaria sanguinalis, post-emergence, 336 h, Postemergence, scale 0 to 100, read-out: Plant response rating, Crabgrass, Large
Outline: as §1

[13] = tested on: winter wheat (Triticum aestivum); assay: Test C postemergence; conditions: Triticum aestivum, post-emergence, 336 h, Postemergence, scale 0 to 100, read-out: Plant response rating, Wheat
Outline: as §1

[14] = tested on: yellow nutsedge (Cyperus esculentus); assay: Test C postemergence; conditions: Cyperus, post-emergence, 336 h, Postemergence, scale 0 to 100, read-out: Plant response rating, Nutsedge, Yellow
Outline: as §1

soybean (Glycine max) = assay: Test C postemergence; conditions: Glycine max, post-emergence, Postemergence, scale 0 to 100, read-out: Plant response rating, Soybean
Outline: as §1

[15] = tested on: johnsongrass (Sorghum halepense); assay: Test C postemergence; conditions: Sorghum halepense, post-emergence, 336 h, Postemergence, scale 0 to 100, read-out: Plant response rating, Johnsongrass
Outline: as §1

[16] = tested on: lambsquarters (Chenopodium album); assay: Test C postemergence; conditions: Chenopodium album, post-emergence, 336 h, Postemergence, scale 0 to 100, read-out: Plant response rating, Lambsquarters
Outline: as §1

[17] = tested on: giant foxtail (Setaria faberii); assay: Test C postemergence; conditions: Setaria faberi, post-emergence, 336 h, Postemergence, scale 0 to 100, read-out: Plant response rating, Foxtail, Giant
Outline: as §1

[18] = tested on: blackgrass (Alopecurus myosuroides); assay: Test C postemergence; conditions: Alopecurus myosuroides, post-emergence, 336 h, Postemergence, scale 0 to 100, read-out: Plant response rating, Blackgrass
Outline: as §1

[19] = tested on: chickweed (common chickweed, Stellaria media); assay: Test C postemergence; conditions: Stellaria media, post-emergence, Postemergence, scale 0 to 100, read-out: Plant response rating, Chickweed
Outline: as §1

Fc1cnc(Oc2c(Cl)cccc2Oc2ncc(Cl)cn2)nc1 [Compound 18, 5-chloro-2-[5-chloro-6-[(5-fluoro-2-pyrimidinyl)oxy]phenoxy]pyrimidine]
pest or weed control at 31 g/ha ([1]; 31 g ai/ha): 10% | pest or weed control at 62 g/ha ([1]; 62 g ai/ha): 60% | pest or weed control at 125 g/ha ([1]; 125 g ai/ha): 70% | pest or weed control at 31 g/ha ([2]; 31 g ai/ha): 100% | pest or weed control at 62 g/ha ([2]; 62 g ai/ha): 100% | pest or weed control at 125 g/ha ([2]; 125 g ai/ha): 100% | pest or weed control at 31 g/ha ([3]; 31 g ai/ha): 50% | pest or weed control at 62 g/ha ([3]; 62 g ai/ha): 70% | pest or weed control at 125 g/ha ([3]; 125 g ai/ha): 90% | pest or weed control at 31 g/ha ([4]; 31 g ai/ha): 80% | pest or weed control at 62 g/ha ([4]; 62 g ai/ha): 85% | pest or weed control at 125 g/ha ([4]; 125 g ai/ha): 95% | pest or weed control at 250 g/ha ([4]; 250 g ai/ha): 98% | pest or weed control at 31 g/ha ([5]; 31 g ai/ha): 75% | pest or weed control at 62 g/ha ([5]; 62 g ai/ha): 70% | pest or weed control at 125 g/ha ([5]; 125 g ai/ha): 85% | pest or weed control at 250 g/ha ([5]; 250 g ai/ha): 95% | pest or weed control at 31 g/ha ([6]; 31 g ai/ha): 5% | pest or weed control at 62 g/ha ([6]; 62 g ai/ha): 5% | pest or weed control at 125 g/ha ([6]; 125 g ai/ha): 5% | pest or weed control at 250 g/ha ([6]; 250 g ai/ha): 10% | plant injury at 31 g/ha ([7]; 31 g ai/ha): 20% | plant injury at 62 g/ha ([7]; 62 g ai/ha): 35% | plant injury at 125 g/ha ([7]; 125 g ai/ha): 50% | plant injury at 250 g/ha ([7]; 250 g ai/ha): 80% | pest or weed control at 31 g/ha ([8]; 31 g ai/ha): 45% | pest or weed control at 62 g/ha ([8]; 62 g ai/ha): 60% | pest or weed control at 125 g/ha ([8]; 125 g ai/ha): 70% | pest or weed control at 250 g/ha ([8]; 250 g ai/ha): 85% | pest or weed control at 31 g/ha ([9]; 31 g ai/ha): 80% | pest or weed control at 62 g/ha ([9]; 62 g ai/ha): 90% | pest or weed control at 125 g/ha ([9]; 125 g ai/ha): 95% | pest or weed control at 250 g/ha ([9]; 250 g ai/ha): 98% | pest or weed control at 31 g/ha ([10]; 31 g ai/ha): 65% | pest or weed control at 62 g/ha ([10]; 62 g ai/ha): 75% | pest or weed control at 125 g/ha ([10]; 125 g ai/ha): 90% | pest or weed control at 250 g/ha ([10]; 250 g ai/ha): 95% | pest or weed control at 31 g/ha ([11]; 31 g ai/ha): 70% | pest or weed control at 62 g/ha ([11]; 62 g ai/ha): 90% | pest or weed control at 125 g/ha ([11]; 125 g ai/ha): 95% | pest or weed control at 250 g/ha ([11]; 250 g ai/ha): 95% | pest or weed control at 31 g/ha (kochia (Kochia scoparia); 31 g ai/ha): 30% | pest or weed control at 62 g/ha (kochia (Kochia scoparia); 62 g ai/ha): 50% | pest or weed control at 125 g/ha (kochia (Kochia scoparia); 125 g ai/ha): 85% | pest or weed control at 250 g/ha (kochia (Kochia scoparia); 250 g ai/ha): 95% | Corn plant response rating (crop injury, 0 = no effect, 100 = complete kill) at 31 g/ha (corn (Zea mays); 31 g ai/ha): 5% | Corn plant response rating (crop injury, 0 = no effect, 100 = complete kill) at 62 g/ha (corn (Zea mays); 62 g ai/ha): 5% | Corn plant response rating (crop injury, 0 = no effect, 100 = complete kill) at 125 g/ha (corn (Zea mays); 125 g ai/ha): 20% | Corn plant response rating (crop injury, 0 = no effect, 100 = complete kill) at 250 g/ha (corn (Zea mays); 250 g ai/ha): 55% | pest or weed control at 31 g/ha ([12]; 31 g ai/ha): 5% | pest or weed control at 62 g/ha ([12]; 62 g ai/ha): 5% | pest or weed control at 125 g/ha ([12]; 125 g ai/ha): 55% | pest or weed control at 250 g/ha ([12]; 250 g ai/ha): 70% | plant injury at 31 g/ha ([13]; 31 g ai/ha): 0% | plant injury at 62 g/ha ([13]; 62 g ai/ha): 0% | plant injury at 125 g/ha ([13]; 125 g ai/ha): 0% | plant injury at 250 g/ha ([13]; 250 g ai/ha): 15% | pest or weed control at 31 g/ha ([14]; 31 g ai/ha): 5% | pest or weed control at 62 g/ha ([14]; 62 g ai/ha): 10% | pest or weed control at 125 g/ha ([14]; 125 g ai/ha): 10% | pest or weed control at 250 g/ha ([14]; 250 g ai/ha): 10% | plant injury at 31 g/ha (soybean (Glycine max); 31 g ai/ha): 75% | plant injury at 62 g/ha (soybean (Glycine max); 62 g ai/ha): 85% | plant injury at 125 g/ha (soybean (Glycine max); 125 g ai/ha): 90% | plant injury at 250 g/ha (soybean (Glycine max); 250 g ai/ha): 95% | pest or weed control at 31 g/ha ([15]; 31 g ai/ha): 5% | pest or weed control at 62 g/ha ([15]; 62 g ai/ha): 10% | pest or weed control at 125 g/ha ([15]; 125 g ai/ha): 5% | pest or weed control at 250 g/ha ([15]; 250 g ai/ha): 10% | pest or weed control at 31 g/ha ([16]; 31 g ai/ha): 65% | pest or weed control at 62 g/ha ([16]; 62 g ai/ha): 90% | pest or weed control at 125 g/ha ([16]; 125 g ai/ha): 95% | pest or weed control at 250 g/ha ([16]; 250 g ai/ha): 95% | pest or weed control at 31 g/ha ([17]; 31 g ai/ha): 15% | pest or weed control at 62 g/ha ([17]; 62 g ai/ha): 5% | pest or weed control at 125 g/ha ([17]; 125 g ai/ha): 25% | pest or weed control at 250 g/ha ([17]; 250 g ai/ha): 45% | pest or weed control at 31 g/ha ([18]; 31 g ai/ha): 0% | pest or weed control at 62 g/ha ([18]; 62 g ai/ha): 5% | pest or weed control at 125 g/ha ([18]; 125 g ai/ha): 5% | pest or weed control at 250 g/ha ([18]; 250 g ai/ha): 45% | pest or weed control at 31 g/ha ([19]; 31 g ai/ha): 50% | pest or weed control at 62 g/ha ([19]; 62 g ai/ha): 55% | pest or weed control at 125 g/ha ([19]; 125 g ai/ha): 80% | pest or weed control at 250 g/ha ([19]; 250 g ai/ha): 95%
